Test system: T1, trypsin from crevalle jack (Caranx hippos) pyloric caeca
T1 construct: gene trypsin-like enzyme; native, purified from pyloric caeca (heat, ammonium sulfate, Sephadex G-75); mature N-terminus IVGGFECTPHVFAYQ
Assay: p-nitroaniline release at […] nm, Michaelis-Menten fit
Format: biochemical
Conditions: 0.1 M Tris-HCl pH 8.0; 0.02-2.4 mM BApNA

NC(N)=NCCCC(NC(=O)c1ccccc1)C(=O)Nc1ccc([N+](=O)[O-])cc1 (racemic) [BApNA, N-α-benzoyl-DL-arginine-p-nitroanilide]
Km: 689 ± 50 µM
